Laboratory results: publication PMC6934184, “Selective DNA-PKcs inhibition extends the therapeutic index of localized radiotherapy and chemotherapy” (The Journal of Clinical Investigation, 2019)

Target: T1, FGFR3 G697C (Homo sapiens, UniProt P22607, G697C)
T1 construct: purchased Thermo Fisher Scientific (Life Technologies) SelectScreen
Assay: SelectScreen LanthaScreen
Format: binding
Settings: read-out: % displacement
Procedure, shortened: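 SelectScreen broad panel; activity (Z'LYTE, Adapta) plus binding formats. ATP: Km app for CSF1R Z'LYTE; 10 for CAMK1 Adapta. Readout = % per kinase.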

T1 sequence (P22607 23-806 G697C): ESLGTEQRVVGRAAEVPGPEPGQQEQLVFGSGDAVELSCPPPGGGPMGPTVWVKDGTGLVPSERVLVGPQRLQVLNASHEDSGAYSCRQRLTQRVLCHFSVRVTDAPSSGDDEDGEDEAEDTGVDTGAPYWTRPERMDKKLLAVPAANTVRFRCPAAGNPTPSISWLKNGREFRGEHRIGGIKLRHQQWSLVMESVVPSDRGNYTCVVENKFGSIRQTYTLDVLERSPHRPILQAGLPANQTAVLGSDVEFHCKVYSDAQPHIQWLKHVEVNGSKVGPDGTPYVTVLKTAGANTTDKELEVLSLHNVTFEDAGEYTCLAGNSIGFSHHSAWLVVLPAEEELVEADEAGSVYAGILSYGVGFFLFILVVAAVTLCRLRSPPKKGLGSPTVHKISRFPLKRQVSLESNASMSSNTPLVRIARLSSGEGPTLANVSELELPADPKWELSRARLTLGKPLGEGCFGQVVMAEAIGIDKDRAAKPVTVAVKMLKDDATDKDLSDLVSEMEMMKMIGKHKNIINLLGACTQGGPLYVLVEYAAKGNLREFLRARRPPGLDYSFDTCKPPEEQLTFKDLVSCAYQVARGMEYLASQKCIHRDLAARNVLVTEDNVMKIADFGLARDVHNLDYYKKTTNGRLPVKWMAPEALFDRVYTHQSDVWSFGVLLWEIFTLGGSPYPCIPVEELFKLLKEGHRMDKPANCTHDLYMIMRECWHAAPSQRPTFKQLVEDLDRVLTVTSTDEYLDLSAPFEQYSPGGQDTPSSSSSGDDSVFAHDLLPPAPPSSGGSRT

CN(C(=O)CN1CCOCC1)c1ccc2sc3c(-c4cccc5c(=O)cc(N6CC7CCC(C6)O7)oc45)cccc3c2c1 [NU5455]
inhibition at 1 µM: 3.1%
